Source: PubChem BioAssay AID179 (DTP/NCI, 2004)
Where “and” joins values, the source holds several entries; their conditions need not be identical. Identical values can stand only once. Calls of active or inactive are those of the source.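 How the source made its calls: active means compounds giving half or more protection of infected cells from virus-caused growth loss, again on retest; inactive means the rest.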 Where a SMILES comes first, the peptide text is derived from it. [ ]: non-standard residue; d: D form. The star is where a group is joined. hSer = N[CH](CCO)C(=O)O; Boc = CC(C)(C)OC(=O)*

System: CEM cells HIV-1 protection, formazan growth assay
Assay: NCI AIDS Antiviral Assay
Conditions: for IC50: measured here: growth of uninfected CEM cells
Method in brief: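 Soluble formazan readout of cell growth; CEM cells ± HIV-1; 5 drug concs. ≥50% protection → retest; ≥50% again = moderately active; reproducible 100% = confirmed active.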

## [N-]=[N+]=Nc1ccccc1C(=O)N1C(=O)c2ccccc2C(=O)N(C(=O)c2ccccc2N=[N+]=[N-])c2ccccc21
  EC50: > 200 µM
  IC50: 72.4 µM

## Cc1cn(C2C=CC(=O)C(C)O2)c(=O)[nH]c1=O (stereo not drawn)
  EC50: > 1050 µM
  IC50: 6.31 µM

## O=P1(O)c2ccccc2Oc2ccccc21
  EC50: > 200 µM
  IC50: > 200 µM

## COc1ccc2c(c1)[n+](=O)c(C(=O)C/C(=N/OCCCc1ccccc1)C(=O)NC13CC4CC(CC(C4)C1)C3)c(C)n2[O-]
  EC50: > 39.8 µM
  IC50: > 39.8 µM

## O=C(CC1C=CCS1(=O)=O)NCc1ccccc1 (stereo not drawn)
  EC50: > 97.7 µM
  IC50: > 97.7 µM

## CC(=O)C1C(=O)C(=O)N(c2ccccc2)C1=O (stereo not drawn)
  EC50: > 200 µM
  IC50: > 200 µM

## Cc1c2cc[nH]c(=O)c2cc2c(=O)c3cnccc3[nH]c12
  EC50: > 1.95 µM
  IC50: > 1.95 µM

## N#CC(C#N)=CN1CCCC1
  EC50: > 200 µM
  IC50: > 200 µM

## N#CC(Cc1ccccc1)C(=O)NN (stereo not drawn)
  EC50: > 200 µM
  IC50: > 200 µM

## Cc1cc(O)cc2c1O[C@@]1(C)CCC3[C@@]4(C)CC[C@H](O)C(C)(C)C4CC[C@@]3(C)[C@H]1C2 (stereo partly drawn)
  outcome: inactive

## Nc1nc2c(s1)CCC2
  EC50: > 708 µM
  IC50: 5.62 µM

## CCCCCCSc1nc(COC(=O)NC)c(COC(=O)NC)n1C
  EC50: > 200 µM
  IC50: > 200 µM

## COC(=O)/C(C#N)=C\NC(=S)C(N)=S
  EC50: > 200 µM
  IC50: 11.2 µM

## CCOC(=O)c1c(-c2ccc(Br)cc2)ccn1C
  EC50: > 200 µM
  IC50: 74.1 µM

## CC(=O)c1sc(Nc2ccc(S(=O)(=O)Nc3nc(C)cc(C)n3)cc2)nc1C
  EC50: > 200 µM
  IC50: 112 µM

## NNC(=O)CSc1nc2ccccc2c(=O)n1N
  EC50: > 200 µM
  IC50: > 200 µM

## CSCCC(C(=O)O)N(CC1(O)OCC(O)C(O)C1O)N=O (stereo not drawn)
  outcome: inactive

## S=C(N/N=C/c1ccccc1)NC1CC(c2ccccc2)Oc2ccccc21 (stereo not drawn)
  outcome: inactive

## CCOC(=O)Nc1[nH]c(C)c(Cc2ccccc2)c1C#N
  EC50: > 200 µM
  IC50: 12.3 µM

## Cc1nc2c(o1)C(=Nc1ccccc1)c1nc(C)oc1C2=Nc1ccccc1
  outcome: inactive

## Cc1cc(Cl)c(=O)n(-c2ccccc2)n1
  EC50: > 162 µM
  IC50: > 162 µM

## C#CCOCn1cc(C)c(=O)[nH]c1=O
  EC50: > 200 µM
  IC50: > 200 µM

## CN(C)c1ccc2c3c(c(=O)oc2c1)CCC3
  EC50: > 79.4 µM
  IC50: > 79.4 µM

## CN(C)C[C@@H]1C2C=CC(C2)[C@@H]1CO (stereo partly drawn)
  EC50: > 490 µM
  IC50: > 490 µM

## CC1(C)CNC[C@](C)(OCc2ccccc2)C(=O)[N-]C(C)(C)CNC[C@@](C)(OCc2ccccc2)C(=O)[N-]1.[Ni+2]
  EC50: > 200 µM
  IC50: 151 µM

## COc1ccc(C2OC(c3ccncc3)=NN2C)cc1OC (stereo not drawn)
  EC50: > 200 µM
  IC50: 87.1 µM

## CN(C)c1ccc(C=C2C(=O)N(c3ccccc3)N(c3ccccc3)C2=O)cc1
  EC50: > 100 µM
  IC50: 69.2 µM

## COc1cccc(N/C(C)=C2/CCOC2=O)c1
  EC50: > 200 µM
  IC50: 105 µM

## O=S1(=O)CC2(N3CCOCC3)CCCCC21 (stereo not drawn)
  EC50: > 1020 µM
  IC50: > 1020 µM

## CCNC(=O)OCc1cnc(C)c(OC(=O)NCC)c1COC(=O)NCC
  EC50: > 200 µM
  IC50: 31.6 µM

## O=[N+]([O-])c1nccn1CCC[n+]1cccc2ccccc21
  EC50: > 200 µM
  IC50: > 200 µM

## COc1cc2cc(C(=O)N3CC(CCl)c4c3cc([N+](=O)[O-])c3ccccc43)[nH]c2c(OC)c1OC (stereo not drawn)
  EC50: > 10 µM
  IC50: 2.4 µM

## O=C1C[C@H](c2ccc(O)c(O)c2)Oc2cc(O)cc(O)c21
  EC50: > 631 µM
  IC50: 97.7 µM

## CCCN1CN(C(C(=O)N[C@@H]2C(=O)N3C2SC(C)(C)C3C(=O)O)c2ccc(O)cc2)CSC1=S (stereo partly drawn)
  EC50: > 479 µM
  IC50: 145 µM

## CCCN1CCC(=O)N(CCC(F)(F)C(F)(F)C(F)(F)C(F)(F)C(F)(F)C(F)(F)F)C1=S
  EC50: > 50.1 µM
  IC50: > 50.1 µM

## CCCCN1C(=N)C2(C#N)C(CCC)C(CC)C1C2(C#N)C#N (stereo not drawn)
  EC50: > 200 µM
  IC50: 158 µM

## O=C1C(=C2SC(c3ccccc3)(c3ccccc3)c3ccccc32)C(=O)c2ccccc21
  EC50: > 200 µM
  IC50: > 200 µM

## CSCCC(NC(=O)OC(C)(C)C)C(=O)NCCNc1ccc(NCCNC(=O)C(CCSC)NC(=O)OC(C)(C)C)c2c1C(=O)c1ccccc1C2=O (stereo not drawn)
  EC50: > 100 µM
  IC50: > 100 µM

## O=c1[nH]c2cc(Cl)ccc2nc1/C(=N/Nc1ccccc1)C(O)c1ccco1 (stereo not drawn)
  EC50: > 575 µM
  IC50: > 575 µM

## CC(=O)OCCOCn1c2c(c(=O)[nH]c1=O)CCC2
  EC50: > 200 µM
  IC50: > 200 µM

## O=C(CCC(=O)Nc1ccccc1C(F)(F)F)N/N=C1\C(=N\NC(=O)CCC(=O)Nc2ccccc2C(F)(F)F)C(c2ccc3c(c2)OCO3)Oc2ccccc21 (stereo not drawn)
  EC50: > 23.4 µM
  IC50: > 23.4 µM

## CC(C)(C)OC(=O)N[C@@H]1C(=O)N2CCCOC12 (stereo partly drawn)
  outcome: inactive

## CC(CCC(=O)O)[C@H]1CCC2[C@H]3C(CC(=O)[C@@]21C)[C@@]1(C)CCC(O)C[C@H]1C[C@@H]3O (stereo partly drawn)
  EC50: > 200 µM
  IC50: > 200 µM

## O=C(Cn1c(=O)ccc2ccccc21)Cn1c(=O)ccc2ccccc21
  EC50: > 200 µM
  IC50: > 200 µM

## COCCC(NC(=O)C(CC(C)C)NC(=O)OC(C)(C)C)C(=O)OC (stereo not drawn) (Boc-Leu-[hSer](Me)-OMe; configuration not given here)
  EC50: > 200 µM
  IC50: 26.9 µM

## FC(F)(F)c1cccc(C2SCc3nc4ccccc4n32)c1 (stereo not drawn)
  outcome: inactive

## O=C(Nc1cccc(C(F)(F)F)c1)c1cc(-c2ccccc2)nc(=S)[nH]1
  EC50: > 661 µM
  IC50: > 661 µM

## O=C(O)C12C3C4C1C1C2C3C41C(=O)O (stereo not drawn)
  EC50: > 200 µM
  IC50: > 200 µM

## C=C1CC2(CCOc3ccccc32)OC1=O (stereo not drawn)
  EC50: > 871 µM
  IC50: 4.37 µM

## CC(=O)c1sc(/N=C\c2c(O)c3ccccc3oc2=O)nc1C
  EC50: > 200 µM
  IC50: 38.9 µM

## O=C(NC1CCCCC1)/C(=C\c1ccc(/C=C(/NC(=O)c2ccccc2)C(=O)NC2CCCCC2)cc1)NC(=O)c1ccccc1
  EC50: > 200 µM
  IC50: 120 µM

## [O-][n+]1c(CCl)nc2ccccc2c1-c1ccccc1F
  EC50: > 34.7 µM
  IC50: > 34.7 µM

## O=[N+]([O-])c1ccc(N=Cc2ccccc2O)cc1
  EC50: > 200 µM
  IC50: 8.91 µM

## CCc1c(O)cc(=O)oc1-c1ccc(OC)c(OC)c1
  EC50: > 200 µM
  IC50: > 200 µM

## C/C=C/C[P+](c1ccccc1)(c1ccccc1)c1ccccc1
  EC50: > 200 µM
  IC50: 1.48 µM and 1.32 µM

## Cn1c(=O)c2c(nc(NCCCCl)n2CC(=O)NCCCCl)n(C)c1=O
  EC50: > 200 µM
  IC50: > 200 µM

## Oc1cc(O)c2c(c1)O[C@H](c1cc(O)c(O)c(O)c1)[C@H](O)C2
  EC50: > 200 µM
  IC50: 0.692 µM

## CCCCCCCCCCCCCCCC(=O)NCC(COP(=O)([O-])OCC[N+](C)(C)C)OCC (stereo not drawn)
  outcome: inactive

## CCN(CC)C(=O)N1CN(c2ccccc2)C2(CCN(CCCC3(c4ccc(F)cc4)OCCO3)CC2)C1=O
  EC50: > 200 µM
  IC50: 27.5 µM

## CC(C)(C)c1cc(C(O)(C(F)(F)F)C(F)(F)F)c(S)c(C(O)(C(F)(F)F)C(F)(F)F)c1
  EC50: > 200 µM
  IC50: 3.47 µM

## OC1CC1Sc1ccccc1 (stereo not drawn)
  outcome: inactive

## CCC1OC2C(CC=C(C)C)=C3OC(C)(O)C(C)(CC)C(O)C3=C3OC(=O)C=C1C32 (stereo not drawn)
  EC50: > 200 µM
  IC50: 30.9 µM

## COC(=O)C(=O)C(C(=O)C(=O)Nc1ccccc1[N+](=O)[O-])c1nc2ccc([N+](=O)[O-])cc2[nH]c1=O (stereo not drawn)
  EC50: > 269 µM
  IC50: 245 µM

## Cc1ccc(S(=O)(=O)N/N=C2/C3CCC(C3)C2c2ccccc2)cc1 (stereo not drawn)
  EC50: > 200 µM
  IC50: > 200 µM

## Cc1ccc(N2C3=C(CC4=C2CC(C)(C)CC4=O)C(=O)CC(C)(C)C3)cc1
  EC50: > 100 µM
  IC50: > 100 µM

## C=CCCCCOCOCCOC
  EC50: > 138 µM
  IC50: > 138 µM

## COC(=O)C1(Cc2ccccc2)Cc2ccccc2C1
  EC50: > 200 µM
  IC50: 35.5 µM

## CCN(CC)CCn1c(=O)c2ccccc2n2c3c(=O)n(C)c(=O)n(C)c3nc12
  EC50: > 20 µM
  IC50: 1.86 µM

## O=C1c2cc([N+](=O)[O-])ccc2-c2ccc3c4ccc5c6c(ccc(c7ccc1c2c73)c64)C(=O)c1cc([N+](=O)[O-])ccc1-5
  EC50: > 100 µM
  IC50: > 100 µM

## CC(=O)OC[C@]1(C)C2C=C[C@@H]3C4(CC[C@]5(C)C(C(C)N(C)C)[C@H](O)CC35C)CC24CC[C@@H]1N(C)C (stereo partly drawn)
  outcome: inactive

## COc1ccc(C2OCC3OC(n4cc(C)c(=O)[nH]c4=O)C[C@H]3N2OC(C)=O)cc1 (stereo partly drawn)
  outcome: inactive

## N#Cc1ccc(NC(=NCC(=O)O)Nc2cccc3ccccc23)cc1
  EC50: > 200 µM
  IC50: > 200 µM

## S=C(NNC1=NCCN1)Nc1ccccc1
  EC50: > 200 µM
  IC50: 2.82 µM

## OC(C(c1ccccc1)c1ccccn1)(C(F)(F)F)C(F)(F)F (stereo not drawn)
  EC50: > 200 µM
  IC50: > 200 µM

## CCOC(=O)/C(F)=C/c1ccc(C)cc1
  EC50: > 126 µM
  IC50: > 126 µM

## O=C1OS(=O)(=O)c2ccccc21
  EC50: > 200 µM
  IC50: > 200 µM

## O=C1c2cc3c(cc2NC(c2ccccc2F)C1O)OCO3 (stereo not drawn)
  EC50: > 200 µM
  IC50: 12 µM

## COc1ccc(C2SC(N)=Nc3c2c(C)nn3C(=O)c2ccccc2O)cc1OC (stereo not drawn)
  EC50: > 20 µM
  IC50: 0.617 µM

## Cc1ccc(C(=O)/C=C/c2ccccc2O)c(C)c1
  EC50: 91.2 µM
  IC50: 102 µM

## CCCOC(=O)NC(C)C(=O)NC(CCC(=O)NC(CCCC(N)C(=O)O)C(=O)NC(C)C(=O)O)C(=O)O (stereo not drawn)
  EC50: > 50.1 µM
  IC50: > 50.1 µM

## CC(C)(C)OC(=O)NC1CCCC1C(=O)C1=CCCC1 (stereo not drawn)
  EC50: > 200 µM
  IC50: 105 µM

## C=C[C@@]1(C)CCC2(O)C(CCC3C2(C)CCC[C@@]3(C)COC(=O)CC(=O)OC)C1 (stereo partly drawn)
  EC50: > 24.5 µM
  IC50: > 24.5 µM

## COc1cc(C2SCC(=O)N2c2ccc(Oc3ccc(Cl)cc3)c(Cl)c2)cc(OC)c1OC (stereo not drawn)
  EC50: > 200 µM
  IC50: 20 µM

## O=C1C(=O)c2ccccc2C(O)=C1Nc1ccc(Cl)cc1
  outcome: inactive

## O=C(O)/C(=C/c1ccc([N+](=O)[O-])cc1)c1ccccc1
  EC50: > 490 µM
  IC50: 95.5 µM

## Cn1c(=O)c(CC(C(=O)O)C(=O)O)nc2ccccc21
  EC50: > 200 µM
  IC50: > 200 µM

## CCOC(=O)C(C(=O)c1ccccc1C(=O)OC)=P(c1ccccc1)(c1ccccc1)c1ccccc1
  EC50: 22.9 µM
  IC50: 52.5 µM
